Reference: patent US20160045614A1, “TARGETED LIPOSOMAL COMPOSITION USING ANTI-HER-2 AFFIBODY MOLECULES AND APPLICATIONS THEREOF IN CANCER TREATMENT” (priority 2014, published 2016)

How the values were obtained:
[1] = system: TUBO tumor; experiment: In vivo chemotherapy study, TUBO tumor model; set-up: species or system female BALB/c mice; details: 15 mg/kg; possibly acute cardiac toxicity
Protocol: All animal experiments were conducted in compliance with the Institutional Ethical Committee and Research Advisory Committee of Mashhad University of Medical Sciences guidelines. On day 0, female BALB/c mice, aged 4-6 weeks, were given subcutaneous injections of TUBO tumor cells (5×10^5 cells per mouse) in the right flank. On day 14, tumor bearing mice with palpable size received medication via a single tail vein injection of either dextrose 5% solution as negative control or doxorubicin at 15 mg/kg encapsulated in liposomes. Mice were weighed and tumor sizes were monitored within 60 days post-injection and the experiment was terminated for those mice that felt so unwell. Kaplain-Meier event free survival probability curve was obtained for each experimental group.

[2] = system: SKBR3, TUBO and MDA-MB231 Cells; experiment: Cytotoxicity study, MTS assay; assay type: cell-based; details: 1 and 3 hours incubation, then 72 hours; FIG. 4
Protocol: The anti-proliferative effects of prepared liposomes containing Dox were assessed on SKBR3, TUBO and MDA-MB231 Cells using MTS assay (Promega). For this purpose, the cells were seeded at 5000 cells/well in 96 well plates. After overnight incubation, the medium was replaced with an FCS-free medium containing 1:2 serial dilutions of liposomal Dox or free Dox for scheduled incubation times (1 and 3 hours) at 37° C. The cells were washed gently in PBS and further incubated in the free drugs medium at 37° C. for 72 hours. The viability of cells was determined using a Promega MTS kit. Then, the IC50 of formulations were calculated.

## COc1cccc2c1C(=O)c1c(O)c3c(c(O)c1C2=O)C[C@@](O)(C(=O)CO)C[C@@H]3O[C@H]1C[C@H](N)[C@H](O)[C@H](C)O1.Cl [Dox, doxorubicin hydrochloride]
[1]
  survival of the group under conventional Dox treatment: died in early days
[2]
  cytotoxicity (IC50) on HER2+ cell lines SKBR3 and TUBO against HER2− cell line MDA-MB-231: no distinguishing difference between cytotoxicity of HER2^+ and HER2^− cells
